Test [1] deals with HCT-116 MTAP wild-type cells. Briefly: Inhibition of proliferation of HCT-116 MTAP wild-type cells (Cell-Titer Glo). Particulars: 8 days. The class given is cell-based. Here is the method:
Test 2: Compound's inhibitory activity on proliferation of HCT-116 MTAP wild-type cells.
Materials and Cells: HCT-116 MTAP wild-type cells obtained from Kyinno Bio (China); RPMI-1640 medium, fetal bovine serum, and penicillin-streptomycin purchased from Thermo Fisher Scientific (America); 384-well plates from PerkinElmer (America); Cell-Titer Glo assay kit from Promega (America).
Cell Culture: HCT116 MTAP wild-type cells were cultured in RPMI 1640 medium containing 10% fetal bovine serum and 1% penicillin-streptomycin at 37°C, 5% CO2. Only cells in logarithmic growth phase were used for experiments.
Cell Proliferation Inhibition Assay: The compound's inhibitory activity on HCT-116 MTAP wild-type cells was assessed using the Cell-Titer Glo assay kit. Adjusting cell concentration, 40 µL was seeded into a 384-well plate and cultured overnight at 37°C, 5% CO2. Each well received 40 nL of the compound, achieving concentrations from 0 to 10,000 nM (starting concentration 10,000 nM, 3-fold dilution, 10 points), with 0.1% DMSO. The cell plate was incubated for 8 days at 37°C, 5% CO2. Cell-Titer Glo reagent (40 µL) was added to measure cell viability.

In test [2] the test system is HCT-116 MTAP(-/-) deficient cells. Briefly: Inhibition of proliferation of HCT-116 MTAP(-/-) deficient cells (Cell-Titer Glo). Particulars: 8 days. The class given is cell-based. Here is the method:
Test 1: Compound's inhibitory activity on proliferation of HCT-116 MTAP(-/-) deficient cells.
Materials and Cells: HCT-116 MTAP(-/-) deficient cells obtained from Kyinno Bio (China); RPMI-1640 medium, fetal bovine serum, and penicillin-streptomycin purchased from Thermo Fisher Scientific (America); 384-well plates from PerkinElmer (America); Cell-Titer Glo assay kit from Promega (America).
Cell Culture: HCT116 MTAP(-/-) deficient cells were cultured in RPMI 1640 medium containing 10% fetal bovine serum and 1% penicillin-streptomycin at 37°C, 5% CO2. Only cells in logarithmic growth phase were used for experiments.
Cell Proliferation Inhibition Assay: The compound's inhibitory activity on HCT-116 MTAP(-/-) deficient cells was assessed using the Cell-Titer Glo assay kit. Adjusting cell concentration, 40 µL was seeded into a 384-well plate and cultured overnight at 37°C, 5% CO2. Each well received 40 nL of the compound, achieving concentrations from 0 to 10,000 nM (starting concentration 10,000 nM, 3-fold dilution, 10 points), with 0.1% DMSO. The cell plate was incubated for 8 days at 37°C, 5% CO2. Cell-Titer Glo reagent (40 µL) was added to measure cell viability.

“4-amino-N-methyl-N-(8-(trifluoromethyl)-1, 3,4,5-tetrahydrobenzo [c]oxepin-5-yl)imidaz o[1,5-a]quinoxaline-8 -carboxamide [Example 44]”: the concentration for half-maximal inhibition (IC50) (commonly the concentration that inhibits the measured activity by half) in test [1] is over 10000 nM; in test [2] it was 310 nM.

Turning to “4-amino-N-methyl-N-((1S,4S)-1-methyl-7-( trifluoromethyl)isochr oman-4-yl)imidazo[1, 5-a]quinoxaline-8-car boxamide [Example 105]”, the IC50 turned out to be 2190 nM in test [1] and 66.1 nM in test [2].

On to `Nc1nc2ccc(C(=O)N(C3CC3)[C@@H]3COc4cc(C(F)(F)F)ccc43)cc2n2cncc12` (single isomer, unassigned) [Example 84], for which the half-inhibitory concentration (IC50) was determined as 1470 nM in test [1] (Homo sapiens, HCT-116, 192 h) and 21.9 nM in test [2] (Homo sapiens, HCT-116, 192 h).

Turning to `Cc1ncn2c1c(N)nc1ccc(C(=O)N(C3CC3)[C@H]3COc4cc(C(F)(F)F)ccc43)cc12` (single isomer, unassigned) [Example 85], the IC50 in test [1] (Homo sapiens, HCT-116, 192 h) worked out at 781 nM; in test [2] (Homo sapiens, HCT-116, 192 h) it was 791 nM.

In the case of `Cc1ncn2c1c(N)nc1ccc(C(=O)N(C3CC3)[C@@H]3COc4cc(C(F)(F)F)ccc43)cc12` (single isomer, unassigned) [Example 86], the IC50 was 1330 nM in test [1] (Homo sapiens, HCT-116, 192 h) and 61.1 nM in test [2] (Homo sapiens, HCT-116, 192 h).

Take `CN(C(=O)c1ccc2nc(N)c3cncn3c2c1)[C@H]1COCc2ccc(C(F)(F)F)cc21` (single isomer, unassigned) [Example 93]: the IC50 was over 10000 nM in test [1] (Homo sapiens, HCT-116, 192 h) and over 3000 nM in test [2] (Homo sapiens, HCT-116, 192 h).

With `CN(C(=O)c1ccc2nc(N)c3cncn3c2c1)[C@@H]1COCc2ccc(C(F)(F)F)cc21` (single isomer, unassigned) [Example 94], the IC50 in test [1] (Homo sapiens, HCT-116, 192 h) turned out to be 5170 nM; in test [2] (Homo sapiens, HCT-116, 192 h), 80.8 nM.

For `C[C@@H]1OC[C@@H](N(C)C(=O)c2ccc3nc(N)c4cncn4c3c2)c2ccc(F)cc21` (single isomer, unassigned) [Example 95], the IC50 in test [1] (Homo sapiens, HCT-116, 192 h) was over 10000 nM; in test [2] (Homo sapiens, HCT-116, 192 h) it was 211 nM.

For `C[C@@H]1OC[C@@H](N(C)C(=O)c2cc3c(cn2)nc(N)c2cncn23)c2ccc(C(F)(F)F)cc21` (single isomer, unassigned) [Example 97], the IC50 in test [1] (Homo sapiens, HCT-116, 192 h) is 1550 nM; in test [2] (Homo sapiens, HCT-116, 192 h), 29.8 nM.

Consider `C[C@@H]1OC[C@@H](N(C)C(=O)c2ccc3nc(N)c4cncn4c3c2)c2cc(F)ccc21` (single isomer, unassigned) [Example 99], for which the IC50 is 7130 nM in test [1] (Homo sapiens, HCT-116, 192 h) and 928 nM in test [2] (Homo sapiens, HCT-116, 192 h).

Consider `C[C@H]1OC[C@@H](N(C)C(=O)c2ccc3nc(N)c4cncn4c3c2)c2cc(F)ccc21` (single isomer, unassigned) [Example 100], for which the half-maximal inhibitory concentration (IC50) in test [1] (Homo sapiens, HCT-116, 192 h) was determined as 3580 nM; in test [2] (Homo sapiens, HCT-116, 192 h), 68.3 nM.

Turning to `CN(C(=O)c1ccc2nc(N)c3cncn3c2c1)[C@H]1CSc2cc(C(F)(F)F)ccc21` (single isomer, unassigned) [Example 101], the 50% inhibitory concentration (IC50) is over 10000 nM in test [1] (Homo sapiens, HCT-116, 192 h) and 2190 nM in test [2] (Homo sapiens, HCT-116, 192 h).

Consider `CN(C(=O)c1ccc2nc(N)c3cncn3c2c1)[C@@H]1CSc2cc(C(F)(F)F)ccc21` (single isomer, unassigned) [Example 102], for which the IC50 in test [1] (Homo sapiens, HCT-116, 192 h) was 1990 nM; in test [2] (Homo sapiens, HCT-116, 192 h), 7.9 nM.

On to `CN(C(=O)c1cc2c(cc1F)nc(N)c1cncn12)[C@H]1COC(C)(C)c2cc(C(F)(F)F)ccc21` (single isomer, unassigned) [Example 134], for which the IC50 in test [1] (Homo sapiens, HCT-116, 192 h) came to 5890 nM; in test [2] (Homo sapiens, HCT-116, 192 h) it was 623 nM.

For the compound `CN(C(=O)c1cc2c(cc1F)nc(N)c1cncn12)[C@@H]1COC(C)(C)c2cc(C(F)(F)F)ccc21` (single isomer, unassigned) [Example 135], the IC50 is 1960 nM in test [1] (Homo sapiens, HCT-116, 192 h) and 9.3 nM in test [2] (Homo sapiens, HCT-116, 192 h).

Regarding `CN(C(=O)c1ccc2nc(N)c3cncn3c2c1)C1COc2ccccc21` (stereo not shown) [Example 1, 4-amino-N-(2,3-dihydrobenzofuran-3-yl)-N-methylimidazo[1,5-a]quinoxaline-8-carboxamide], the half-inhibitory concentration (IC50) in test [1] (Homo sapiens, HCT-116, 192 h) was over 10000 nM; in test [2] (Homo sapiens, HCT-116, 192 h), 2310 nM.

For `CN(C(=O)c1ccc2nc(N)c3cncn3c2c1)[C@@H]1COc2cc(-c3cnn(C)c3)ccc21` [Example 2, (S)-4-amino-N-methy 1-N-(6-(1-methyl-1H-pyrazol-4-yl)-2,3-dihydrobenzofuran-3-yl)i midazo[1,5-a]quinoxa line-8-carboxamide], the IC50 in test [1] (Homo sapiens, HCT-116, 192 h) stood at 6670 nM; in test [2] (Homo sapiens, HCT-116, 192 h) it was 61 nM.

For `CN(C(=O)c1ccc2nc(N)c3cncn3c2c1)[C@@H]1COc2cc(Br)ccc21` [Example 3, (S)-4-amino-N-(6-bromo-2,3-dihydrobenzof uran-3-yl)-N-methyli midazo[1,5-a]quinoxaline-8-carboxamide], the half-maximal inhibitory concentration (IC50) in test [1] (Homo sapiens, HCT-116, 192 h) is 2250 nM; in test [2] (Homo sapiens, HCT-116, 192 h), 23.4 nM.

Turning to `CC1OC[C@@H](N(C)C(=O)c2ccc3nc(N)c4cncn4c3c2)c2ccc(C(F)(F)F)cc21` (stereo partly drawn) [Example 5, 4-amino-N-methyl-N-((4S)-1-methyl-7-(trifluoromethyl)isochroman-4-yl)imidazo[1,5-a]quinoxaline-8-carbox amide], the IC50 in test [1] (Homo sapiens, HCT-116, 192 h) came out at 280 nM; in test [2] (Homo sapiens, HCT-116, 192 h), 4 nM.

Take `Cc1ncn2c1c(N)nc1ccc(C(=O)N(C)[C@@H]3COc4cc(C(F)(F)F)ccc43)cc12` [Example 6, (S)-4-amino-N,3-dime thyl-N-(6-(trifluoromethyl)-2,3-dihydrobenzofuran-3-yl)imidazo[1 ,5-a]quinoxaline-8-car boxamide]: the half-inhibitory concentration (IC50) in test [1] (Homo sapiens, HCT-116, 192 h) was found to be 993 nM; in test [2] (Homo sapiens, HCT-116, 192 h), 10.6 nM.

As for `CN(C(=O)c1ccc2nc(N)c3cncn3c2c1)C1COc2nc(C(F)(F)F)ccc21` (stereo not shown) [Example 7, 4-amino-N-methyl-N-(6-(trifluoromethyl)-2,3-dihydrofuro[2,3-b]pyridin-3-yl)imidazo[1,5-a]quinoxaline-8-car boxamide], the IC50 in test [1] (Homo sapiens, HCT-116, 192 h) is over 10000 nM; in test [2] (Homo sapiens, HCT-116, 192 h), 141 nM.

In the case of `CN(C(=O)c1ccc2nc(N)c3cncn3c2c1)C1COCc2ccc(C(F)(F)F)cc21` (stereo not shown) [Example 8, 4-amino-N-methyl-N-(6-(trifluoromethyl)isochroman-4-yl)imidaz o[1,5-a]quinoxaline-8-carboxamide], the half-maximal inhibitory concentration (IC50) was 6480 nM in test [1] (Homo sapiens, HCT-116, 192 h) and 106 nM in test [2] (Homo sapiens, HCT-116, 192 h).

Turning to `CC1OC[C@@H](N(C)C(=O)c2ccc3nc(N)c4cncn4c3c2)c2ccc(F)cc21` (stereo partly drawn) [Example 9, 4-amino-N-((4S)-7-fluoro-1-methylisochroman-4-yl)-N-methyli midazo[1,5-a]quinoxa line-8-carboxamide], the IC50 worked out at 2140 nM in test [1] (Homo sapiens, HCT-116, 192 h) and 41.1 nM in test [2] (Homo sapiens, HCT-116, 192 h).

For `CN(C(=O)c1ccc2nc(N)c3cncn3c2c1)[C@@H]1COc2cc(C#N)ccc21` [Example 10, (S)-4-amino-N-(6-cyano-2,3-dihydrobenzof uran-3-yl)-N-methyli midazo[1,5-a]quinoxa line-8-carboxamide], the half-inhibitory concentration (IC50) in test [1] (Homo sapiens, HCT-116, 192 h) is 3110 nM; in test [2] (Homo sapiens, HCT-116, 192 h) it was 31.2 nM.

Turning to `CN(C(=O)c1ccc2nc(N)c3cc(F)cn3c2c1)[C@@H]1COc2cc(Br)ccc21` [Example 11, (S)-4-amino-N-(6-bromo-2,3-dihydrobenzof uran-3-yl)-2-fluoro-N -methylpyrrolo[1,2-a] quinoxaline-8-carbox amide], the IC50 in test [1] (Homo sapiens, HCT-116, 192 h) was found to be 6410 nM; in test [2] (Homo sapiens, HCT-116, 192 h), 1770 nM.

For the compound `CN(C(=O)c1cc2c(cc1Cl)nc(N)c1cncn12)[C@@H]1COc2cc(Br)ccc21` [Example 12, (S)-4-amino-N-(6-bromo-2,3-dihydrobenzof uran-3-yl)-7-chloro-N -methylimidazo[1,5-a] quinoxaline-8-carbox amide], the half-inhibitory concentration (IC50) is 1110 nM in test [1] (Homo sapiens, HCT-116, 192 h) and 6.1 nM in test [2] (Homo sapiens, HCT-116, 192 h).

As to `CN(C(=O)c1cc2c(cc1F)nc(N)c1cncn12)C1COC(C)(C)c2cc(C(F)(F)F)ccc21` (stereo not shown) [Example 13, 4-amino-N-(1,1-dimethyl-7-(trifluoromethyl)isochroman-4-yl)-7-f luoro-N-methylimidaz o[1,5-a]quinoxaline-8-carboxamide], the IC50 is 2510 nM in test [1] (Homo sapiens, HCT-116, 192 h) and 15.7 nM in test [2] (Homo sapiens, HCT-116, 192 h).

Regarding `CC1OC[C@@H](N(C)C(=O)c2cc3c(cn2)nc(N)c2cncn23)c2ccc(Br)cc21` (stereo partly drawn) [Example 17, 4-amino-N-((4S)-7-bromo-1-methylisochroman-4-yl)-N-methyli midazo[1,5-a]pyrido[3,4-e]pyrazine-8-carb oxamide], the IC50 in test [1] (Homo sapiens, HCT-116, 192 h) stood at 243 nM; in test [2] (Homo sapiens, HCT-116, 192 h), 4.2 nM.

`CN(C(=O)c1ccc2nc(N)c3cncn3c2c1)[C@@H]1CCc2cc(C(F)(F)F)ccc21` [Example 18, (R)-4-amino-N-methy 1-N-(5-(trifluoromethy 1)-2,3-dihydro-1H-inden-1-yl)imidazo[1,5-a]quinoxaline-8-carbox amide]: the IC50 in test [1] (Homo sapiens, HCT-116, 192 h) was found to be 4330 nM; in test [2] (Homo sapiens, HCT-116, 192 h), 14.5 nM.

(Values after patent publication EP4775208A1, “USE OF PRMT5 INHIBITOR IN TREATMENT OF TUMORS OR CANCERS” (Apeiron Therapeutics (Hong Kong) Ltd., priority 2023, dated 2025).)
